Results as given in ChEMBL document CHEMBL5154680, “Seco and Nor-seco Isodhilarane-Type Meroterpenoids from Penicillium purpurogenum and the Configuration Revisions of Related Compounds” (J Nat Prod, 2022).
Active and inactive are the calls of the source. The rule behind the calls is not given here.

How the values were obtained:
Type in all cases: functional, cell-based
[1] = test system: HepG2; assay: Cytotoxicity against human HepG2 cells assessed as reduction in cell viability incubated for 24 hrs by MTT assay; settings: HepG2, 24 h
[2] = test system: A549; assay: Cytotoxicity against human A549 cells assessed as reduction in cell viability incubated for 24 hrs by MTT assay; settings: A549, 24 h
[3] = test system: HepG2; assay: Hepatoprotective activity against APAP-induced toxicity in human HepG2 cells assessed as cell survival rate at 10 uM incubated for 48 hrs by MTT assay

Structure (SMILES)	IC50 [1]	IC50 [2]	Activity [3]
C[C@H]1O[C@@H]2OC(=O)[C@]3(C)C[C@@H]4[C@](C)(C(=O)C=C5C(=CC(=O)OC5(C)C)[C@@]45CO5)[C@H](C1=O)[C@]23O	5.58 µM	6.8 µM	
COC(=O)[C@]12C(=O)[C@@H](C)O[C@@H]3OC(=O)[C@](C)(C[C@H]4[C@]5(CO5)C5=CC(=O)OC(C)(C)C5=CC[C@@]41C)[C@@H]32			Active
COC(=O)[C@]12C(=O)[C@@H](C)O[C@@H]3OC(=O)[C@](C)(C[C@@H]4[C@]1(C)CC=C1C(=CC(=O)OC1(C)C)[C@@]4(C)O)[C@@H]32			Active
C[C@H]1O[C@@H]2OC(=O)[C@]3(C)C[C@@H]4[C@@]5(C)C(=C1O[C@H]5C=C1C(=CC(=O)OC1(C)C)[C@@]41CO1)[C@]23O			Active
C[C@H]1O[C@@H]2OC(=O)[C@]3(C)C[C@@H]4[C@](C)(C(=O)C=C5C(=CC(=O)OC5(C)C)[C@@]45CO5)[C@H](C1=O)[C@H]23			Active
COC(=O)[C@]12C(=O)[C@@H](C)O[C@@H]3OC(=O)[C@](C)(C[C@H]4[C@]5(CO5)C5=CC(=O)OC(C)(C)[C@]56O[C@@H]6C[C@@]41C)[C@@H]32			Active
